Measurements: patent US20240335395A1, “COMPOSITIONS AND METHODS FOR PREVENTING AND/OR TREATING DISEASE ASSOCIATED WITH IL-23 EXPRESSION” (ALLSPIM, priority 2021, published 2024)

Experiments:
[1] = system: TPA-induced psoriasis-like skin hyperplasia; experiment: TPA-induced psoriasis-like skin hyperplasia in BALB/c mice; type: in vivo, mouse
Method: Induction of TPA-induced psoriasis-like skin hyperplasia in mice treated with oral 2,4-D. Forty mice (BALB/c) were purchased from Guangdong Experimental Animal Center. All experiments were approved by the animal ethics committee of Guangzhou University of Chinese Medicine according to Chinese legislation on animal experiments. Mice (n=30) at 8 to 11 weeks of age received a daily topical dose of 15 μg TPA (Sigma) in 200 μl of acetone on the shaved back for day 1 and 4. This dose was empirically determined to cause the most optimal and reproducible skin inflammation in mice (data not shown). Control mice (n=10) were treated similarly with a control vehicle cream (Sigma). See FIG. 9 for an illustrative example of a mouse receiving topical TPA as compared to a control mouse receiving a control vehicle cream. Of the 30 mice that received topical TPA, 20 mice were treated orally with 0.2 mg (n=10) or 1 mg (n=10) 2,4-D daily until day 6. The remaining 10 untreated TPA mice served as a disease control. On day 7, dorsal skin was photographed and fixed in 10% formalin and stained with H&E (Haemotoxylin and Eosin). Epidermal thickness was quantified by Image J software.
Statistical analysis. Data are presented as the mean±SD for the in vivo animal study. Statistical analysis was performed using Student's t-test (paired 2-sample testing).

[2] = system: IBA1 positive macrophage/microglia; experiment: Laser-induced CNV in rats, IBA-1 positive macrophages on RPE-choroid flat-mounts; type: in vivo, rat; settings: intravitreous injection
Method: Animals. All experiments were performed in accordance with the European Communities Council Directive 86/609/EEC and approved by local ethical committees (#2541-2015110210279792 v3). Six- to eight-week-old male Long Evans rats from the Janvier Breeding Center (Le Genest-Saint-Isle, France) were used to create a rat model of choroidal neovascularization (CNV) used as a model of human wet macular degeneration. Laser-induced CNV. After anesthesia and dilation of the pupils, coverslips were positioned on the cornea as a contact glass. For rats, six or eight burns were performed 2 to 3 optic disc diameters away from the optic nerve with an Argon laser (532 nm) mounted on a slit lamp (175 mW, 0.1 s and 50 μm). Both eyes of animals received laser induction. The presence of a bubble witnessed the rupture of Bruch's membrane and confirmed a successful laser impact. Treatments. After laser photocoagulation, rats were divided into 3 treatment groups: —Intravitreous injection (IVT) of 2,4-D (identified as “new treatment”, New T), —IVT of vehicle (PBS), —IVT of triamcinolone acetonide (Kenacort® 40 mg/ml; TA) (n=12 rats per group). The IVT consisted of 5 μl injected with a 31G needle mounted on a micro-thin (100 μl) syringe posterior to the limbus, avoiding the lens. IVT was performed immediately after laser had been performed. […]

[3] = system: IL-23; experiment: IL-23 production (ELISA of supernatant) in LPS-stimulated THP-1 cell culture, Examples 1 and 8; type: cell-based, human
Method: The THP-1 cell line (TIB-202) was obtained from the American Type Culture Collection (ATCC, USA), grown in RPMI 1640 culture medium (Gibco) supplemented with 10% fetal bovine serum (Gibco, UK), 50 U/mL penicillin-streptomycin (Gibco), and 0.05 mM 2-Mercaptoethanol (Gibco). Cultured cells were plated into culture plates in appropriate volumes with a cell density of 500,000 cells/mL.
PCR was performed in duplicate using SYBR Green qPCR master mix (Takara Biomedical Technology Co., Ltd, Dalian, China) on an ABI 7500 Real-Time PCR System (Thermo, USA). The cycling program was as follows: denaturation at 95° C. for 15 s, 40 cycles of 95° C. for 15 s and extension at 60° C. for 60 s, followed by melt curve generation. The ΔΔCT method was used to quantify relative mRNA levels as described in User Bulletin #2 for the ABI PRISM 7700 Sequence Detection System (Applied Biosystems, 2001). The primer sequences used in this study are 5′-[…]-3′ (forward), 5′-[…]-3′ (reverse) for human IL-23p19 (SEQ ID NOs: 4 and 5, respectively); and 5′-ACAGTCCATGCCATCACTG-3′ (forward) and 5′-AGTAGAGGCAGGGATGATG-3′ for human GAPDH as a reference (SEQ ID NOs: 6 and 7, respectively). 24 hours after culture and treatments, supernatants were collected and IL-23 levels measured using the IL-23 Human Uncoated ELISA Kit (ThermoFisher Scientific Inc., USA) according to the manufacturer's instructions. A Varioskan LUX microplate reader (Thermo Fisher, USA) was used for the assay and 4-parameter logistic regression was used for data analysis. Two duplicates per sample were performed and results were averaged.
The anti-IL-23 activity of 2,4-D was compared with the commercially prescribed nonsteroidal anti-inflammatory drugs (NSAIDs:[…], Ibuprofen, and Aspirin) in the LPS-stimulated THP-1 cell culture system described above (Example 1)).

[4] = system: IL-23; experiment: IL-23 gene expression in RA-patient synovial cells (RT-qPCR); type: cell-based, human; settings: 2 h
Method: Synovial fluid was freshly collected from 20 patients with rheumatoid arthritis (RA) by arthrocentesis. At two hours after treatment or not with 2,4-D, RA-patient synovial cells were directly lysed using TRIzol reagent (Invitrogen, USA) followed by RNA extraction according to the manufacturer's protocol. Finally, RNA was dissolved in 10 μL DEPC-treated water, quantified on a NanoDrop 2000 spectrophotometer (Thermo Scientific Inc., USA), and reverse-transcribed using the Super Script III First-Strand Synthesis System for RT-PCR kit (Thermo Scientific, USA) according to the manufacturer's protocol. PCR was performed in duplicate using SYBR Green qPCR master mix (Takara Biomedical Technology Co., Ltd, Dalian, China) on an ABI 7500 Real-Time PCR System (Thermo, USA). The cycling program was as follows: denaturation at 95° C. for 15 s, 40 cycles of 95° C. for 15 s and extension at 60° C. for 60 s, followed by melt curve generation. The ΔΔCT method was used to quantify relative mRNA levels as described in Example 1 above. The primer sequences specific for human IL-17 genes (hu-IL-17 Forward: 5′-[…]-3′; hu-IL-17 Reverse: 5′-GGCACTTTGCCTCCCAGAT-3′) (SEQ ID NOs 8 and 9, respectively) and IL-23 (see Example 1, above) were used.

## COc1cc(O)c(OC)c(O)c1C(=O)/C=C/c1ccccc1 [2,4-D, 2′,4′-dihydroxy-3′,6′-dimethoxychalcone]
[1]; 0.2 mg daily oral
  thickness of back skin compared with normal skin of control mice: significantly higher
  thickness of back skin hyperplasia compared with untreated mice: significantly lower
[1]; 1 mg daily oral
  thickness of back skin compared with normal skin of control mice: similar
  thickness of back skin hyperplasia compared with untreated mice: significantly lower
[1]; 0.2 or 1 mg daily oral
  dorsal skin compared to mice receiving TPA only: improved in a dose-dependent manner
[2]
  number of infiltrating IBA-1 positive macrophages in CNV: important reduction
[3]; LPS-stimulated THP-1, 24 h
  decrease of IL-23 detected in culture supernatant: more than 90%
[3]; LPS-stimulated THP-1, Example 8
  inhibition in IL-23 production/release in supernatant: 5 to 10 fold
[3]; LPS-stimulated THP-1 cell culture
  concentration of maximum inhibition of IL-23 cytokine production: 20 µg/mL
[4]; 1 μg/ml
  decrease of IL-23 expression: 8 fold
[4]; 5 μg/ml
  inhibition of IL-23 expression: 65 fold
